Patent publication US10533010B2, “Substituted indole Mcl-1 inhibitors” (Vanderbilt University, priority 2014, dated 2020)

These compounds were tested against recombinant Mcl-1 (residues 172-327) (Homo sapiens (Human), UniProt Q07820) (assay: Fluorescence polarization anisotropy competition assay (FITC-Bak or FITC-Bim BH3 peptide) with Mcl-1). Conditions: Table 2; Ki bins given in nM; FITC-Bak or FITC-Bim peptide competition; Ki converted from IC50; read-out: Ki for Inhibition of Mcl-1.
Format: binding

Sequence of recombinant Mcl-1 (residues 172-327) (Q07820 172-327): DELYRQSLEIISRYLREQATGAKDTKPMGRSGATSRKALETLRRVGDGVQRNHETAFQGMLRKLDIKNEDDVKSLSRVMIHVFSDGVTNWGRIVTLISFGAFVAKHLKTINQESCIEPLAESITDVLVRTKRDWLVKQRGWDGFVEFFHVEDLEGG

Ki [nM] | Structure (SMILES)
< 50 | Cc1cc(OCCCc2c3n(c4c(-c5c(C)nn(C)c5C)c(Cl)ccc24)C(C)CN(Cc2ccc(C(=O)O)cn2)C3=O)cc(C)c1Cl (centres unmarked) [I-129, 6-((7-chloro-10-(3-(4-chloro-3,5-dimethylphenoxy)propyl)-4-methyl-1-oxo-6-(1,3,5-trimethyl-1H-pyrazol-4-yl)-3,4-dihydropyrazino[1,2-a]indol-2(1H)-yl)methyl)nicotinic acid]
< 50 | Cc1cc(OCCCc2c(C(=O)Nc3cc(C(=O)O)cc(N(C)CCN(C)C)c3)[nH]c3c(-c4c(C)nn(C)c4C)c(Cl)ccc23)cc(C)c1Cl [I-210, 3-(6-chloro-3-(3-(4-chloro-3,5-dimethylphenoxy)propyl)-7-(1,3,5-trimethyl-1H-pyrazol-4-yl)-1H-indole-2-carboxamido)-5-((2-(dimethylamino)ethyl)(methyl)amino)benzoic acid]
< 50 | CCn1ccc2c(N3CCCn4c(c(CCCOc5cc(C)c(Cl)c(C)c5)c5ccc(Cl)c(-c6c(C)nn(C)c6C)c54)C3=O)cc(C(=O)O)cc21 [I-249, 4-(8-chloro-11-(3-(4-chloro-3,5-dimethylphenoxy)propyl)-1-oxo-7-(1,3,5-trimethyl-1H-pyrazol-4-yl)-4,5-dihydro-1H-[1,4]diazepino[1,2-a]indol-2(3H)-yl)-1-ethyl-1H-indole-6-carboxylic acid]
< 50 | Cc1cc(OCCCc2c(C(=O)NCc3ccc(C(=O)O)o3)[nH]c3c(-c4c(C)n[nH]c4C)cccc23)cc(C)c1Cl [I-62, 5-((3-(3-(4-chloro-3,5-dimethylphenoxy)propyl)-7-(3,5-dimethyl-1H-pyrazol-4-yl)-1H-indole-2-carboxamido)methyl)furan-2-carboxylic acid]
< 50 | Cc1cc(OCCCc2c3n(c4c(-c5c(C)nn(C)c5C)c(Cl)ccc24)CCCN(c2cccc4c2ccn4CC(=O)O)C3=O)cc(C)c1Cl [I-348, 2-(4-(8-chloro-11-(3-(4-chloro-3,5-dimethylphenoxy)propyl)-1-oxo-7-(1,3,5-trimethyl-1H-pyrazol-4-yl)-4,5-dihydro-1H-[1,4]diazepino[1,2-a]indol-2(3H)-yl)-1H-indol-1-yl)acetic acid]
< 50 | CC[C@H](C)[C@H](NC(=O)c1ccc(CNC(=O)c2[nH]c3c(-c4c(C)nn(C)c4C)cccc3c2CCCOc2cc(C)c(Cl)c(C)c2)o1)C(=O)O [I-270, (5-((3-(3-(4-chloro-3,5-dimethylphenoxy)propyl)-7-(1,3,5-trimethyl-1H-pyrazol-4-yl)-1H-indole-2-carboxamido)methyl)furan-2-carbonyl)-L-isoleucine]
< 50 | Cc1cc(OCCCc2c3n(c4c(-c5c(C)nn(C)c5C)c(Cl)ccc24)CCCN(c2cccc(-c4nn[nH]n4)c2)C3=O)cc(C)c1Cl [I-354, 2-(3-(2H-tetrazol-5-yl)phenyl)-8-chloro-1-(3-(4-chloro-3,5-dimethylphenoxy)propyl)-7-(1,3,5-trimethyl-1H-pyrazol-4-yl)-2,3,4,5-tetrahydro-1H-[1,4]diazepino[1,2-a]indol-1-one]
< 50 | Cc1cc(OCCCc2c3n(c4c(-c5c(C)nn(C)c5C)c(Cl)ccc24)C(C)[C@@H](C)N(Cc2ccc(C(=O)O)cn2)C3=O)cc(C)c1Cl (stereo partly drawn) [I-146, 6-(((3R)-7-chloro-10-(3-(4-chloro-3,5-dimethylphenoxy)propyl)-3,4-dimethyl-1-oxo-6-(1,3,5-trimethyl-1H-pyrazol-4-yl)-3,4-dihydropyrazino[1,2-a]indol-2(1H)-yl)methyl)nicotinic acid]
< 50 | Cc1cc(OCCCc2c3n(c4c(-c5c(C)nn(C)c5C)c(Cl)ccc24)CCCN(c2cc(C(=O)O)cc4c2c(C=O)cn4C)C3=O)cc(C)c1Cl [I-254, 4-(8-chloro-11-(3-(4-chloro-3,5-dimethylphenoxy)propyl)-1-oxo-7-(1,3,5-trimethyl-1H-pyrazol-4-yl)-4,5-dihydro-1H-[1,4]diazepino[1,2-a]indol-2(3H)-yl)-3-formyl-1-methyl-1H-indole-6-carboxylic acid]
< 50 | Cc1cc(OCCCc2c3n(c4c(-c5c(C)nn(C)c5C)c(Cl)ccc24)[C@@H](C)CN(Cc2ccc(C(=O)O)cn2)C3=O)cc(C)c1Cl [I-149, (S)-6-((7-chloro-10-(3-(4-chloro-3,5-dimethylphenoxy)propyl)-4-methyl-1-oxo-6-(1,3,5-trimethyl-1H-pyrazol-4-yl)-3,4-dihydropyrazino[1,2-a]indol-2(1H)-yl)methyl)nicotinic acid]
< 50 | Cc1cc(OCCCc2c(C(=O)Nc3cccc(C(=O)O)c3)[nH]c3c(-c4c(C)nn(C)c4C)cccc23)cc(C)c1Cl [I-196, 3-(3-(3-(4-chloro-3,5-dimethylphenoxy)propyl)-7-(1,3,5-trimethyl-1H-pyrazol-4-yl)-1H-indole-2-carboxamido)benzoic acid]
< 50 | Cc1cc(OCCCc2c3n(c4c(-c5c(C)nn(C)c5C)c(Cl)ccc24)CCCN(c2ccc4ccn(C)c4c2)C3=O)cc(C)c1Cl [I-248, 8-chloro-1-(3-(4-chloro-3,5-dimethylphenoxy)propyl)-2-(1-methyl-1H-indol-6-yl)-7-(1,3,5-trimethyl-1H-pyrazol-4-yl)-2,3,4,5-tetrahydro-1H-[1,4]diazepino[1,2-a]indol-1-one]
< 50 | Cc1cc(OCCCc2c(C(=O)Nc3ccc(CC(=O)O)cc3)[nH]c3c(-c4c(C)nn(C)c4C)cccc23)cc(C)c1Cl [I-205, 2-(4-(3-(3-(4-chloro-3,5-dimethylphenoxy)propyl)-7-(1,3,5-trimethyl-1H-pyrazol-4-yl)-1H-indole-2-carboxamido)phenyl)acetic acid]

Structure (SMILES) | Ki [nM]
Cc1cc(OCCCc2c3n(c4c(-c5c(C)nn(C)c5C)c(Cl)ccc24)CCCN(Cc2cc(OCCC(C)C)cc(C(=O)O)c2)C3=O)cc(C)c1Cl [I-300, 3-((8-chloro-11-(3-(4-chloro-3,5-dimethylphenoxy)propyl)-1-oxo-7-(1,3,5-trimethyl-1H-pyrazol-4-yl)-4,5-dihydro-1H-[1,4]diazepino[1,2-a]indol-2(3H)-yl)methyl)-5-(isopentyloxy)benzoic acid] | < 50
Cc1cc(OCCCc2c3n(c4c(-c5c(C)nn(C)c5C)c(Cl)ccc24)CCCN(Cc2cc(C(=O)O)cc(OCCC(C)C)n2)C3=O)cc(C)c1Cl [I-302, 2-((8-chloro-11-(3-(4-chloro-3,5-dimethylphenoxy)propyl)-1-oxo-7-(1,3,5-trimethyl-1H-pyrazol-4-yl)-4,5-dihydro-1H-[1,4]diazepino[1,2-a]indol-2(3H)-yl)methyl)-6-(isopentyloxy)isonicotinic acid] | < 50
Cc1cc(OCCCc2c3n(c4c(-c5c(C)nn(C)c5C)cccc24)CCCN(Cc2ccc(N4CCCCC4)c(C(=O)O)c2)C3=O)cc(C)c1Cl [I-81, 5-((11-(3-(4-chloro-3,5-dimethylphenoxy)propyl)-1-oxo-7-(1,3,5-trimethyl-1H-pyrazol-4-yl)-4,5-dihydro-1H-[1,4]diazepino[1,2-a]indol-2(3H)-yl)methyl)-2-(piperidin-1-yl)benzoic acid] | 51 to 100

Same assay, conditions: Table 2; Ki bins given in μM; FITC-Bak or FITC-Bim peptide competition; Ki converted from IC50; read-out: Ki for Inhibition of Mcl-1

Structure (SMILES) | Ki [nM]
Cc1cc(CNC(=O)c2[nH]c3c(-c4c(C)nn(C)c4C)cccc3c2CCCOc2cc(C)c(Cl)c(C)c2)cc(OC(F)(F)F)c1 [I-265, 3-(3-(4-chloro-3,5-dimethylphenoxy)propyl)-N-(3-methyl-5-(trifluoromethoxy)benzyl)-7-(1,3,5-trimethyl-1H-pyrazol-4-yl)-1H-indole-2-carboxamide] | 1000 to 9990
